Results from patent US4610686A, “Controlled delivery of haloperidol by an osmotic delivery system” (ALZA Corporation, priority 1983, dated 1986).
Converted amounts (≈) assume the structure as drawn.

Columns and labels:
[1] = haloperidol, background statement; cited from earlier work
[2] = haloperidol alone

Q: For `O=C(CCCN1CCC(O)(c2ccc(Cl)cc2)CC1)c1ccc(F)cc1` [haloperidol, 4-[4-(-chlorophenyl)-4-hydroxy-1-piperidnyl]-1-(4-fluorophenyl)-1-butanone], which solubility (physchem; aqueous citric acid) is on record?
A: The solubility was 165 mg/mL (≈ 439 mM).

Q: And the solubility (physchem; aqueous maleic acid)?
A: Its solubility is over 200 mg/mL.

Q: And the solubility (physchem; aqueous malic acid)?
A: Its solubility is over 250 mg/mL.

Q: What about the solubility (physchem; water) of the same compound?
A: Its solubility is under 0.1 mg/mL.

Q: What about the “solubility in water (in words, background)” value [1] of the same compound?
A: Its value is “practically insoluble in water”.

Q: What about the “osmotic pressure (in words)” value [2] of the same compound?
A: Its value is “near zero osmotic pressure”.
